{
  "source": "patent US10759683B2",
  "about": "“Methods for removing mercury contaminant from aqueous solutions, and bioreactors therefor” (priority 2018, dated 2020)",
  "key": {"[1]": {"system": "Heliobacterium modesticaldum Ice1", "assay": "microbe, parasite or virus in culture", "description": "The following strains were used in these studies: Heliobacterium modesticaldum Ice1, Clostridium acetobutylicum ATCC 824, Geobacter sulfurreducens PCA and Escherichia coli K-12. For phototrophic growth of H. modesticaldum, cells were supplied with constant illumination at 80 μmolphoton·m^−2·s^−1 at 50° C. whereas chemotrophic cells were grown at the same temperature in the dark in line with previous work.^32 C. acetobutylicum and E. coli were grown at 37° C. whereas G. sulfurreducens was grown at 28° C., all chemotrophically in the dark.\n[…] Hg growth assays were carried out under the same phototrophic and chemotrophic conditions mentioned above.\nStock solutions used in cell cultures were all prepared following anaerobic techniques. […] For DMSO controls, the DMSO solution was bubbled with N2 prior to being added to the bioreactor; final concentration of DMSO in the reactor was 2.8 mM. Sodium nitrite stocks were prepared to a final concentration of 10 mM in ultra pure miliQ, filter-sterilized, sparged with N2 and stored at 4° C. in the dark; final concentration of NO2^− in the reactor was 10 μM. For experiments where HCO3^− was supplied, a stock solution of 1 M was prepared by dissolving NaHCO3 in ultra pure MiliQ and autoclaving for 30 minutes at 121° C. under 80% N2/20% CO2 atmosphere prior to use. Fumarate stock solutions were prepared at a final concentration of 40 mM in ultra pure miliQ, filter sterilized (0.2 μm pore size), bubbled with N2, sealed and crimped shut in sterile serum bottles prior to use. All equipment used in the anaerobic glove box was conditioned for at least 48 hours prior to use.\nFor Heliobacterium modesticaldum Ice1, new cultures were started from a cryostock for every bioreactor experiment. Cells were revived in DSMZ medium 655 (herein referred to as PYE) previously used to isolate H. modesticaldum (Kimble, L. K.; Mandelco, L.; Woese, C. R.; Madigan, M. T., Heliobacterium modesticaldum, sp. nov., a thermophilic heliobacterium of hot springs and volcanic soils. Archives of Microbiology 1995, 163, (4), 259-267). Cultures started from cryostock were grown phototrophically in PYE with an incandescent light source and constant illumination of 80 μmol photon m^−2s^−1 at 50° C. in line with previous work (Kimble, above) until reaching early stationary phase. Afterwards, a 10% inoculum was used to re-inoculate 10 mL of fresh PYE and cells were grown phototrophically (with the same light intensity) or chemotrophically (in the dark) at 50° C. These cultures were used to establish finely resolved growth curves and Hg growth assays (see FIGS. 1 and 2).\nFor experiments testing the effect of carbon source on Hg^0 production some modifications to the initial PYE medium growth protocol were made. Phototrophic H. modesticaldum cells were grown with pyruvate, acetate, acetate+HCO3^− and/or yeast extract alone as a carbon source. Cells were grown until late exponential phase before being subsampled to supply a 10% inoculum for cultures with a final volume 75 mL destined for the bioreactor and grown under the same conditions (see Table 1). […] Upon reaching late exponential phase, cells were inoculated into the bioreactor as a 10% inoculum in a final volume of 560 mL of media with the desired carbon source treatment.\nPlease refer to the methods section of Gregoire and Poulain (2016)^21 (which is herein incorporated by reference in its entirety) for a schematic of the bioreactor setup employed and the Hg^0 sampling methodology. Note that phototrophic bioreactor experiments were carried out using a 200 W incandescent clear light bulb at a constant illumination at 20 μmolphoton·m^−2·s^−1."}, "[2]": {"system": "Geobacter sulfurreducens PCA", "assay": "Bioreactor Hg^0 production and growth of Geobacter sulfurreducens PCA supplied with Hg^II", "assay_type": "cell-based", "settings": "for Cumulative Hg(0) production / Final O.D. 600 nm: live cells, 28 C, Hg 250 pM", "text": "Geobacter sulfurreducens PCA cells were revived from cryostock and grown in defined medium (herein referred to as GSMM) according to previous work (Schaefer, J. K.; Morel, F. M. M., High methylation rates of mercury bound to cysteine by Geobacter sulfurreducens. Nature Geoscience 2009, 2, (2), 123-126) with the following modification: resazurin, the color indicator used to monitor anoxia, was removed to avoid issues with abiotic Hg reduction given that resazurin is a reducing agent. Cells were grown chemotrophically in the dark at 28° C. Cells took between 10 to 12 days to re-initiate growth, as such, cultures were maintained by re-inoculating fresh GSMM every 4 days with a 10% inoculum in a final volume of 10 mL. Upon reaching late exponential phase, a 10% inoculum was used to start cultures in GSMM with a final volume of 75 mL destined for the bioreactor. Upon reaching late exponential phase a 10% inoculum was used to inoculate the bioreactor where cells were supplied with Hg^II in 560 mL of PYEΔSO4^2− or GSMM medium (see Table 1)."}, "[3]": {"system": "Clostridium acetobutylicum ATCC 824", "assay": "Bioreactor Hg^0 production and growth of Clostridium acetobutylicum ATCC 824 supplied with Hg^II", "assay_type": "cell-based", "settings": "chemotrophy", "description": "For Clostridium acetobutylicum ATCC 824, new cultures were started for every bioreactor experiment. Cells were revived in DSMZ medium 104b (herein referred to as PYX). Cells were grown in the dark at 37° C. until reaching early stationary phase after which point they were rotated as a 1% inoculum in a final volume of 10 mL into fresh PYX. Cells were grown to late exponential phase, and re-inoculated as a 1% inoculum in a final volume of 75 mL of PYX in cultures destined for the bioreactor. Experiments were performed in PYE where all SO4^2− salts were substituted with chloride salts (PYEΔSO4^2−) to avoid competition between Hg^II reduction and SO4^2− reduction. Cells were also supplied with Hg^II in DSMZ medium 104b to account for the effect of suboptimal growth medium (see Table 1 and Table 3). […] The initial volume of medium in the bioreactor was corrected to ensure that identical volumes were maintained throughout all experiments."}, "[4]": {"system": "Heliobacterium modesticaldum Ice1", "assay": "Hg growth assays with Heliobacterium modesticaldum Ice1", "assay_type": "cell-based", "settings": "500 nM HgCl2 supplied as two doses of 250 nM 24 hours apart, phototrophic and chemotrophic cells in PYE", "description": "One-way ANOVAs were performed for phototrophic and chemotrophic Hg exposure assays using R statistical software (R Core Team R: A Language and Environment for Statistical Computing, R Foundation for Statistical Computing: 2014). In the event of detecting a significant difference, assumptions of constant variance and normality were verified with the Brusch-Pagan test and the Shapiro-Wilks test, respectively, with the significance thresholds set to p=0.05 for each test. Significant differences were then identified using the Tukey HSD test. The sample size employed for growth assays was n=3 per treatment. All assumptions were passed for significant differences and these values are reported in the Brief Description of the Drawings (see FIG. 4). A non-linear regression model was fit to the cumulative Hg^0 production data as a function of pyruvate concentration using Sigmaplot software. In this instance, a natural logarithmic function was fit to a data set of n=8. Given the significant fit, assumptions of constant variance and normality were verified with the Sigmaplot software with the significant threshold set to p=0.05 for each test."}, "[5]": {"settings": "live cells, phototrophy, 50 C, acetate 30 mM + YE 4 g L-1, HCO3- 10 mM, Hg 250 pM"}, "[6]": {"settings": "chemotrophy, pyruvate 20 mM + YE 4 g L-1 (PYEΔSO4^2-), NTZ 10 μM + DMSO 2.8 mM"}, "[7]": {"settings": "live cells, 37 C, pyruvate 20 mM + YE 4 g L-1 (PYEΔSO4^2-), NTZ 10 μM + DMSO 2.8 mM, Hg 250 pM"}, "[8]": {"settings": "chemotrophy, pyruvate 20 mM + YE 4 g L-1, fumarate 40 mM"}},
  "note": "Where “and” joins values, the source holds several entries; their conditions need not be identical. Equal entries are not always repeated. Where two headings read alike, the source gives them in different places.",
  "data": [
    {"smiles": "O=C([O-])O.[Na+]", "note": "[HCO3—, NaHCO3]", "values": [
      {"measurement": "Cumulative Hg(0) production", "setting": "[1]; [5]", "value": "43.31 pmol and 42.50 pmol"},
      {"measurement": "Final O.D. 600 nm", "setting": "[1]; [5]", "value": "0.02 and 0.039"}
    ]},
    {"smiles": "CC(=O)Oc1ccccc1C(=O)Nc1ncc([N+](=O)[O-])s1", "note": "[NTZ, nitazoxanide]", "values": [
      {"measurement": "Decrease of Hg^0 production in the presence of NTZ", "setting": "[2]; chemotrophy, NTZ 10 μM vs DMSO control", "value": 62, "unit": "%"},
      {"measurement": "Cumulative Hg(0) production", "setting": "[2]; [6]", "value": 3.19, "unit": "pmol"},
      {"measurement": "Final O.D. 600 nm", "setting": "[2]; [6]", "value": 0.041},
      {"measurement": "inhibition at 10 µM", "setting": "[1]; Heliomicrobium modesticaldum, ICE1, read-out: Inhibition (decrease) of chemotrophic Hg^0 production compared to controls", "value": 88, "unit": "%"},
      {"measurement": "Final O.D. 600 nm", "setting": "[1]; live cells, chemotrophy (dark), 50 C, pyruvate 20 mM + YE 4 g L-1, NTZ 10 μM + DMSO 2.8 mM, Hg 250 pM", "value": "0.065 and 0.057"},
      {"measurement": "Cell growth", "setting": "[1]; phototrophic cells, NTZ 10 μM", "value": "did not grow"},
      {"measurement": "Lag: peak of Hg^0 production occurring later than previously observed", "setting": "[1]; phototrophic cells, NTZ 10 μM", "value": 11, "unit": "h"},
      {"measurement": "Decrease of Hg^0 production in the presence of NTZ", "setting": "[3]; NTZ 10 μM vs DMSO control", "value": 98, "unit": "%"},
      {"measurement": "Cumulative Hg(0) production", "setting": "[3]; [7]", "value": 1.20, "unit": "pmol"},
      {"measurement": "Final O.D. 600 nm", "setting": "[3]; [7]", "value": 0.146}
    ]},
    {"smiles": "[Cl][Hg][Cl]", "note": "[Hg^II, HgCl2]", "values": [
      {"measurement": "Cell health at increased mercury concentration", "setting": "[1]; 2 nM Hg, phototrophically grown cells, 48 hours", "value": "unaffected"},
      {"measurement": "Physiological advantage / growth (rate, yield) with sublethal Hg", "setting": "[4]", "value": "No physiological advantage was observed except for a small increase in the yield of phototrophically grown cells"}
    ]},
    {"smiles": "O=C(O)/C=C/C(=O)O", "note": "[Fumarate]", "values": [
      {"measurement": "Cell growth", "setting": "[2]; in the presence of fumarate", "value": "able to grow"},
      {"measurement": "Cumulative Hg(0) production", "setting": "[2]; chemotrophy, acetate 10 mM (optimal growth medium), fumarate 40 mM", "value": "19.81 pmol and 21.48 pmol"},
      {"measurement": "Cumulative Hg(0) production", "setting": "[2]; [8]", "value": 6.65, "unit": "pmol"},
      {"measurement": "Final O.D. 600 nm", "setting": "[2]; [8]", "value": 0.185},
      {"measurement": "Decrease of Hg^0 production in the presence of fumarate", "setting": "[2]; with vs without fumarate as terminal electron acceptor, pyruvate + YE", "value": 50, "unit": "%"}
    ]},
    {"smiles": "O=N[O-].[Na+]", "note": "[NO2, Sodium nitrite]", "values": [
      {"measurement": "Cumulative Hg(0) production", "setting": "[1]", "value": "53.36 ± 0.13 pmol and 53.47 pmol and 53.66 pmol"},
      {"measurement": "Final O.D. 600 nm", "setting": "[1]", "value": "0.034 and 0.023"},
      {"measurement": "Increase in the amount of Hg^0 produced", "setting": "[1]", "value": 30, "unit": "%"}
    ]}
  ]
}
